Where two headings read alike, the source gives them in different places.
How the values were obtained:
all 50 cell lines = assay: CellTiter-Glo Viability Assay, average across all cell lines; type: cell-based; details: Homo sapiens; across all 50 cell lines; read-out: average EC50 for inhibition of cancer cell proliferation
Procedure: (§1) Fifty-one human cancer cell lines (breast cancer (8 cell lines), colorectal cancer (6 cell lines), haematopoietic & lymphoid tumors (13 cell lines), liver cancer (3 cell lines), lung cancer (4 cell lines), ovarian cancer (4 cell lines), pancreatic cancer (8 cell lines), and prostate cancer (5 cell lines)) were tested to determine the effects of representative compounds of Formulas (I)-(XII) on cellular proliferation, as evaluated using the CellTiter-Glo® Viability Assay.
(§2) For the Cell Viability Assays, cells were plated at 300-3,000 cells/well in 384-well plates in their respective media containing 1% Penicillin-Streptomycin and incubated for four days at 37° C. and 5% CO2. Twenty-eight replicates of DMSO-treated cells served as controls and cells treated with compound were performed in duplicate.
(§3) After incubation, 10 μL of CellTiter-Glo® (Promega) was added to each well allowed to incubate for approximately 12 minutes. This reagent results in cell lysis and generation of a luminescent signal proportional to the amount of ATP present. The amount of ATP is directly proportional to the number of metabolically active, viable cells present in culture. The CellTiter-Glo® Assay generates a luminescent signal, produced by the luciferase reaction (Promega.com).
(§4) After incubation, the luminescence signal was read using an EnVision™ Multilabel Plate Reader (Perkin Elmer). Dose-response curves were generated and EC50 concentration values were calculated using Dotmatics' Studies Software (Bishops Stortford, UK).

CLK3 = CLK3 (Homo sapiens, UniProt P49761); assay: CLK3 kinase activity assay (Z-lyte, Ser/Thr 18 peptide)
CLK3, sequence (P49761 whole entry): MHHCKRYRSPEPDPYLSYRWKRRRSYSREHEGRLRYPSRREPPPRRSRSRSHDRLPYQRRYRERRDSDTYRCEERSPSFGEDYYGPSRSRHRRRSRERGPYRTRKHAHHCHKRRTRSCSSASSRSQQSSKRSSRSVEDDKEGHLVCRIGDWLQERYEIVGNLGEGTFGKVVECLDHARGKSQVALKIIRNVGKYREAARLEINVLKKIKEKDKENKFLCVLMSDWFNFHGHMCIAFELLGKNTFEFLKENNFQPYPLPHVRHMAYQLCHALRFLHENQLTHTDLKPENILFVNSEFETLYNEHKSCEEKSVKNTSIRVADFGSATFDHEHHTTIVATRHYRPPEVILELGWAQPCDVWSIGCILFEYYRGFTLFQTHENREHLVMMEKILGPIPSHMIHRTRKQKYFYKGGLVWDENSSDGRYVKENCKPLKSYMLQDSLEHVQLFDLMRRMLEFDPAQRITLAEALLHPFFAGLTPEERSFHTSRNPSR

[1] = system: haematopoietic & lymphoid tumors (13 cell lines); assay: CellTiter-Glo Viability Assay, haematopoietic & lymphoid tumors; type: cell-based; details: Homo sapiens, inhibition of cancer cell proliferation
Procedure: as §1, §2, §3, §4

[2] = system: prostate cancer (5 cell lines); assay: CellTiter-Glo Viability Assay, prostate cancer; type: cell-based; details: Homo sapiens
Procedure: as §1, §2, §3, §4

[3] = system: lung cancer (4 cell lines); assay: CellTiter-Glo Viability Assay, lung cancer; type: cell-based; details: Homo sapiens, inhibition of cancer cell proliferation
Procedure: as §1, §2, §3, §4

[4] = system: ovarian cancer (4 cell lines); assay: CellTiter-Glo Viability Assay, ovarian cancer; type: cell-based; details: Homo sapiens, inhibition of cancer cell proliferation
Procedure: as §1, §2, §3, §4

[5] = system: pancreatic cancer (8 cell lines); assay: CellTiter-Glo Viability Assay, pancreatic cancer; type: cell-based; details: Homo sapiens, inhibition of cancer cell proliferation
Procedure: as §1, §2, §3, §4

CLK2 = target: T1, CLK2 (Homo sapiens, UniProt P49760); assay: CLK2 kinase activity assay (Z-lyte, Ser/Thr 6 peptide); type: biochemical; details: recombinant CLK2 kinase, ATP 60 μM; read-out: EC50
T1 construct: purchased Thermo Fisher (Life Technologies), Z'-LYTE Kinase Assay Kits
T1 sequence (P49760 whole entry): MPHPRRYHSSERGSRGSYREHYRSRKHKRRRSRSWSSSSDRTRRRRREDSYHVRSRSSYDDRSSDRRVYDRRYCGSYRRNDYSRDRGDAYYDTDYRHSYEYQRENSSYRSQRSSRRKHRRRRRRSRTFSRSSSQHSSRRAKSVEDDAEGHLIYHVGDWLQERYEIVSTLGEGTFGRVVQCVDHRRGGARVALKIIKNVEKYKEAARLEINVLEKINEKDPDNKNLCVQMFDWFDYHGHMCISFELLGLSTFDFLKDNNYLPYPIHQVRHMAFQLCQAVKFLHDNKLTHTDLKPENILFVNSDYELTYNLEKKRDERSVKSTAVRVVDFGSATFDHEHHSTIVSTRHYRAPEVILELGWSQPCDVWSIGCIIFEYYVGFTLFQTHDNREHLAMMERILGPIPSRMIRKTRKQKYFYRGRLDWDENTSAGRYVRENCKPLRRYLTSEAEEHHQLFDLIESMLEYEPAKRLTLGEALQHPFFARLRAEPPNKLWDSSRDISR
Procedure: All reactions were performed in duplicate.

[6] = system: colorectal cancer (6 cell lines); assay: CellTiter-Glo Viability Assay, colorectal cancer; type: cell-based; details: Homo sapiens, inhibition of cancer cell proliferation
Procedure: as §1, §2, §3, §4

[7] = system: liver cancer (3 cell lines); assay: CellTiter-Glo Viability Assay, liver cancer; type: cell-based; details: Homo sapiens, inhibition of cancer cell proliferation
Procedure: as §1, §2, §3, §4

HCC1599 = assay: CellTiter-Glo Viability Assay, breast cancer; type: cell-based; details: Homo sapiens, 96 h; HCC1599, breast cancer, four days; read-out: EC50
Procedure: as §1, §2, §3, §4

CAMA1 = assay: CellTiter-Glo Viability Assay, breast cancer; type: cell-based; details: Homo sapiens, CAMA-1, 96 h; CAMA1, breast cancer, four days; read-out: EC50
Procedure: as §1, §2, §3, §4

ZR-75-1 = assay: CellTiter-Glo Viability Assay, breast cancer; type: cell-based; details: Homo sapiens, 96 h; ZR-75-1, breast cancer, four days; read-out: EC50
Procedure: as §1, §2, §3, §4

BT-549 = assay: CellTiter-Glo Viability Assay, breast cancer; type: cell-based; details: Homo sapiens, 96 h; BT-549, breast cancer, four days; read-out: EC50
Procedure: as §1, §2, §3, §4

MCF7 = assay: CellTiter-Glo Viability Assay, breast cancer; type: cell-based; details: Homo sapiens, 96 h; MCF7, breast cancer, four days; read-out: EC50
Procedure: as §1, §2, §3, §4

T47D = assay: CellTiter-Glo Viability Assay, breast cancer; type: cell-based; details: Homo sapiens, 96 h, breast cancer, four days, read-out: EC50
Procedure: as §1, §2, §3, §4

DU4475 = assay: CellTiter-Glo Viability Assay, breast cancer; type: cell-based; details: Homo sapiens, DU-4475, 96 h; DU4475, breast cancer, four days; read-out: EC50
Procedure: as §1, §2, §3, §4

EC50 (CLK3): 24 nM
EC50 ([1]; DND41, DND-41 cell line, read-out: Haematopoietic & Lymphoid tumors, EC50 (μM) DND-41): 0.216 µM
EC50 ([1]; MV4-11, MV-4-11 cell line, read-out: Haematopoietic & Lymphoid tumors, EC50 (μM) MV-4-11): 0.101 µM
EC50 ([1]; Rec1, REC-1 cell line, read-out: Haematopoietic & Lymphoid tumors, EC50 (μM) REC-1): 0.08 µM
EC50 ([1]; SU-DHL-4, SUDHL4 cell line, read-out: Haematopoietic & Lymphoid tumors, EC50 (μM) SUDHL4): 0.317 µM
EC50 ([1]; HL-60 cell line, read-out: Haematopoietic & Lymphoid tumors, EC50 (μM) HL-60): 0.719 µM
EC50 ([1]; JM1 cell line, read-out: Haematopoietic & Lymphoid tumors, EC50 (μM) JM1): 0.093 µM
EC50 ([1]; JURKAT, Clone E6-1 cell line, read-out: Haematopoietic & Lymphoid tumors, EC50 (μM) JURKAT, Clone E6-1): 0.511 µM
EC50 ([1]; JeKo-1 cell line, read-out: Haematopoietic & Lymphoid tumors, EC50 (μM) JeKo-1): 0.073 µM
EC50 ([1]; KASUMI-1 cell line, read-out: Haematopoietic & Lymphoid tumors, EC50 (μM) KASUMI-1): 0.174 µM
EC50 ([1]; Loucy cell line, read-out: Haematopoietic & Lymphoid tumors, EC50 (μM) Loucy): 0.192 µM
EC50 ([1]; MOLT-4 cell line, read-out: Haematopoietic & Lymphoid tumors, EC50 (μM) MOLT-4): 0.327 µM
EC50 ([1]; TF-1 cell line, read-out: Haematopoietic & Lymphoid tumors, EC50 (μM) TF-1): 0.367 µM
EC50 ([1]; TOLEDO cell line, read-out: Haematopoietic & Lymphoid tumors, EC50 (μM) TOLEDO): 0.104 µM
EC50 ([2]; DU-145, read-out: Prostate cancer EC50 Du-145): 325 nM
EC50 ([2]; PC-3, PC3 cell line, inhibition of cancer cell proliferation, read-out: Prostate cancer EC50 PC3): 240 nM
EC50 ([2]; 22Rv1 cell line, inhibition of cancer cell proliferation, read-out: Prostate cancer EC50 22Rv1): 263 nM
EC50 ([2]; LNCap clone FGC cell line, inhibition of cancer cell proliferation, read-out: Prostate cancer EC50 LNCap clone FGC): 422 nM
EC50 ([2]; VCaP (Sigma) cell line, inhibition of cancer cell proliferation, read-out: Prostate cancer EC50 VCaP (Sigma)): 588 nM
EC50 ([3]; A-427, A427 cell line, read-out: Lung cancer, EC50 (μM) A427): 0.303 µM
EC50 ([3]; HCC78, HCC-78 cell line, read-out: Lung cancer, EC50 (μM) HCC-78): 0.467 µM
EC50 ([3]; NCI-H460 cell line, read-out: Lung cancer, EC50 (μM) NCI-H460): 0.268 µM
EC50 ([3]; NCI-H522 cell line, read-out: Lung cancer, EC50 (μM) NCI-H522): 0.142 µM
EC50 ([4]; PA-1, PA1 cell line, read-out: Ovarian cancer, EC50 (μM) PA1): 0.186 µM
EC50 ([4]; TOV112D, TOV-112D cell line, read-out: Ovarian cancer, EC50 (μM) TOV-112D): 0.171 µM
EC50 ([4]; OV-90 cell line, read-out: Ovarian cancer, EC50 (μM) OV-90): 0.464 µM
EC50 ([4]; OVCAR-3 cell line, read-out: Ovarian cancer, EC50 (μM) OVCAR-3): 0.116 µM
EC50 ([5]; BXPC-3, BxPC3 cell line, read-out: Pancreatic cancer, EC50 BxPC3): 484 nM
EC50 ([5]; CAPAN-1, Capan1 cell line, read-out: Pancreatic cancer, EC50 Capan1): 225 nM
EC50 ([5]; Capan-2, Capan2 cell line, read-out: Pancreatic cancer, EC50 Capan2): 464 nM
EC50 ([5]; MIA PaCa-2 cell line, read-out: Pancreatic cancer, EC50 MIA PaCa-2): 134 nM
EC50 ([5]; PANC 05.04 cell line, read-out: Pancreatic cancer, EC50 PANC 05.04): 323 nM
EC50 ([5]; PANC-1 cell line, read-out: Pancreatic cancer, EC50 PANC-1): 429 nM
EC50 ([5]; UPAFII cell line, read-out: Pancreatic cancer, EC50 UPAFII): 157 nM
EC50 (CLK2): 2 nM
EC50 ([6]; HCT-116, HCT116 cell line, read-out: Colorectal cancer, EC50 (μM) HCT116): 0.14 µM
EC50 ([6]; HT-29, HT29 cell line, read-out: Colorectal cancer, EC50 (μM) HT29): 0.295 µM
EC50 ([6]; SW-620, SW620 cell line, read-out: Colorectal cancer, EC50 (μM) SW620): 0.113 µM
EC50 ([6]; DLD-1 cell line, read-out: Colorectal cancer, EC50 (μM) DLD-1): 0.161 µM
EC50 ([6]; SW48 cell line, read-out: Colorectal cancer, EC50 (μM) SW48): 0.096 µM
EC50 ([6]; SW480 cell line, read-out: Colorectal cancer, EC50 (μM) SW480): 0.191 µM
EC50 ([7]; SNU-398, SNU398 cell line, read-out: Liver cancer, EC50 SNU398): 69 nM
EC50 ([7]; HEPG2 cell line, read-out: Liver cancer, EC50 HEPG2): 431 nM
EC50 ([7]; PLC/PRF/5 cell line, read-out: Liver cancer, EC50 PLC/PRF/5): 541 nM
EC50 (HCC1599): 165 nM
EC50 (CAMA1): 329 nM
EC50 (ZR-75-1): 410 nM
EC50 (BT-549): 339 nM
EC50 (MCF7): 725 nM
EC50 (T47D): 503 nM
EC50 (DU4475): 137 nM
Structure (SMILES): CN1CCN(c2cc(C(=O)Nc3cc4cc(-c5cn(C)nn5)ccc4cn3)ccn2)CC1 [Compound 14]
EC50 (all 50 cell lines): 289 nM

From US20220062240A1, “METHODS OF TREATING CANCER USING A CLK INHIBITOR” (BioSplice Therapeutics, Inc., priority 2018, published 2022)
